Laboratory results published in patent publication US20240165196A1, “Beta-Lactamase Inhibitors” (VIB VZW, priority 2021, published 2024).

How the values were obtained:
E. coli TEM-104 = test: checkerboard assay (FICI), peptide versus penicillin G; type: cell-based; conditions: strain with TEM; FICI below 0.5 = synergy
From the text: (§1) FIGS. 2A-2M. (FIG. 2A) TEM mutations and their effects on stability (total energy) as predicted by FoldX. […] Dashed line indicates a total energy difference of 0.5 kcal/mol, the FoldX cut-off above which mutations are considered to be destabilizing. (FIG. 2B) Barplot mapping mutations in (FIG. 2A) to the TEM sequence and indicating occurrence. […] The bar heights correspond to the number of times a mutation occurs across different TEM variants (right-hand y-axis). The color coding is identical to that in (FIG. 2A). Red line indicates the TANGO scores (indicated on the left-hand y-axis), with peaks corresponding to APRs. (FIG. 2C) Mapping of mutations in (FIG. 2A) and (FIG. 2B) to the TEM structure (pdb 1xpb). Protein surface is shown in gray, color coding of mutations is identical to (FIG. 2A) and (FIG. 2B). (FIGS. 2D, 2E, and 2F) Temperature-dependent evolution of the Right-Angle Light Scattering (RALS) intensity during a temperature ramp, similar as in FIG. 1F for key mutants of TEM1, namely TEM-10 (FIG. 2D), TEM-30 (FIG. 2E) and TEM-155 (FIG. 2F). Experiments were shown in triplicate, single repeat is shown. (FIG. 2G) Schematic representation of the structure of the peptides. APR—Aggregation Prone Region, R—Arginine. (FIG. 2H) Ribbon representation of the superposition of the crystal structures of TEM (green, pdb id 1bt5) and SHV (blue, pdb id 1shv). The catalytic site of the beta-lactamase activity is indicated and location of APR3 is shown in red. (FIG. 2I) TANGO aggregation score and alignment of APR3 in TEM and SHV. (FIG. 2J) Fractional Inhibitory Concentration Index determination of 5 peptides versus penicillin on E. coli TEM-104. […] FICI values below 0.5 indicate synergy. Values between 0.5 and 1.0 indicate additivity and values greater than 1 indicate indifference between the combined substances. (FIG. 2K) Same as J for E. coli SHV-11. (FIG. 2L) Same as J for a kanamycin resistant E. coli strain. (FIG. 2M) FICI values for the TEM3.2 peptide on a range of E. coli strains.
(§2) Moreover, the core sequence of peptide TEM3.0 also occurs in the structurally related SHV β-lactamase ([…]). Although the C-terminal extension residues H and N have been replaced with physicochemically similar R and Q, respectively (FIG. 2H). […] To quantify the synergy between these four peptides and penicillin G, we performed a so-called checkerboard assay, which allows to compare the activity of two test compounds co-incubated (here peptide and a beta-lactam antibiotic), to their individual activities in isolation. The result from the assay is quantified as the Fractional Inhibitory Concentration Index (FICI), and it is generally accepted that values below 0.5 indicate synergistic effects between the compounds. As a control, we generated a peptide using the same design, but based on a previously identified APR from the β-galactosidase enzyme (BGAL)^16 from E. coli (APR=SVIIWSL, peptide sequence=[…]) that has a MIC value>100 μg/mL on E. coli strain UZ_TEM104. We evaluated the synergy of the peptides with penicillin G in clinical E. coli isolates carrying the TEM ([…]) or SHV enzymes ([…]). […] As a further control, we also performed a checkerboard assay with an E. coli strain that was resistant to the aminoglycoside kanamycin and observed no synergy between this unrelated antibiotic and our peptides (FIG. 2L), in line with the notion that we are inhibiting a beta-lactamase but not the aminoglycoside degrading enzyme. […] The list of strains included some that harbored only TEM or SHV, but others contained additional Ambler Class A (CTX-M or […]) or Class B (VIM and NDM) beta-lactamases. […] In contrast, the presence of the NDM-type […], that does have a high affinity for Ampicillin and that is completely distinct in sequence and structure from TEM and SHV, seemed to completely prevent the effect of the peptide on the beta-lactam sensitivity of the strains in which it occurred (see also further). […]

E. coli SHV-11 = test: as above; type: cell-based; conditions: strain with SHV-11; FICI below 0.5 = synergy
From the text: as §1, §2

[1] = test system: TEM beta-lactamase in E. coli UZ_TEM104; test: western blot of inclusion body (IB) fraction for TEM; type: cell-based; conditions: 12 μM peptide in PBS, 120 min
Procedure: (§3) FIGS. 3A-3P. […] Three replicates are shown for each condition. […] A single representative image is shown. […] Three replicates are shown for each condition. (FIG. 3E) [Left] […] [Middle] […] [Right] […] A single representative image is shown. […] A single representative image is shown. […] A single representative image is shown. […] A single representative blot is shown. […] 106 cells were analysed for the plot.
(§4) Moreover, we confirmed the presence of the protein in the correct band using mass spectrometry proteomics. We repeated this with a strain expressing SHV-154, blotting with a polyclonal rabbit antibody raised against the recombinant SHV enzyme described above (FIG. 3K).
(§5) The overnight culture of bacteria was centrifuged for 30 min at 4,000×g and cells were washed with physiological water (NaCl 0.9%). Bacterial cells were treated by peptide at the appropriate concentration for at least 2 h at 37 C. The bacterial pellets were washed with 10 mL buffer A (50 mM HEPES, pH 7.5, 300 mM NaCl, 5 mM β-mercaptoethanol, 1.0 mM EDTA) and centrifuged at 4° C. for 30 min at 4,000×g. The supernatant was discarded and 20 mL of buffer B (buffer A plus 1 tablet of the protease and phosphatase Inhibitor Cocktail (ab201119, Abcam, UK) was added to the bacterial pellet. In order to break the cells, a High-Pressure Homogenizer (Glen Creston Ltd) with the pressure set to 20,000-25,000 psi was used on ice, and in addition, the suspensions were sonicated (Branson Digital sonifier 50/60 Hz) on ice with alternating 2 min cycle (15 pulses at 50% power with 30 s pauses on ice, until completing 2 min total sonication time). The lysed cells were centrifuged at 4° C. for 30 min at 11,000×g. The precipitated fraction was afterward re-suspended with 10 mL buffer D (buffer A plus 0.8% (V/V) Triton X-100, 0.1% sodium deoxycholate) and the suspension was sonicated to ensure the pellet is completely dissolved. This step was repeated three times. Centrifugation was performed at 4° C. for 30 min at 11,000×g. Finally, to solubilize IBs, the pellet was suspended in 500 ul of buffer F (50 mM HEPES, pH 7.5, 8.0 M urea) of precipitated fraction.

[2] = test system: SHV beta-lactamase in strain expressing SHV-154; test: western blot of inclusion body (IB) fraction for SHV; type: cell-based, E. coli; conditions: 12 μM peptide in PBS, 120 min
Procedure: as §3, §4, §5

| Substance | synergy with penicillin G (FICI) (E. coli TEM-104) | synergy with penicillin G (FICI) (E. coli SHV-11) | enrichment of the TEM protein in inclusion bodies (western blot) [1] | accumulation of the SHV enzyme in inclusion bodies (western blot) [2] |
| --- | --- | --- | --- | --- |
| Ac-RLTAFLHNRRPRLTAFLHNRR-NH2 [TEM3.0] | clear synergy | not in a strain containing the SHV-11 enzyme | clear enrichment of the TEM protein in IBs | not |
| Ac-RLTAFLHNRRPRLTAFLRQRR-NH2 [TEM3.2] | synergy | synergy | clear enrichment of the TEM protein in IBs | accumulates in IBs |
